What all share (experiment): DTP human tumour cell line panel, 48 h
Assay [1] concerns CAKI-1.
For assay [2], the system named is CCRF-CEM.
The test system of assay [3] is DMS-114.
Assay [4] deals with EKVX.
Assay [5] has as its system M14.
Assay [6] relates to MOLT-4.
For assay [7], the system named is Malme-3M.
Assay [8] deals with NCI-H226.
Assay [9] relates to OVCAR-4.
In assay [10] the test system is RXF 393.
The subject of assay [11] is SF-268.
The subject of assay [12] is SK-MEL-2.
In assay [13] the test system is SK-MEL-5.
For assay [14], the system named is SK-OV-3.
The test system of assay [15] is SN12C.
Assay [16] has as its system SNB-19.
Assay [17] concerns TK-10.
For assay [18], the system named is UACC-257.
The test system of assay [19] is MDA-N.
In assay [20] the test system is MDA-MB-231.

A word on the GI50: it is the concentration that inhibits growth by half.

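Five concentrations, 48 hours, 96-well plates. At the GI50, growth is halved.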 Active and inactive are the calls of the source. Cut-off read from the data, not from the text of the source: active = GI50 up to about 1.1 µM and inactive = higher.

As for `COc1ccc([C@@H]2CC(=O)NCCCNCCCCNCCCN2)cc1`, the GI50 in assay [1], in assay [2], in [3], in [4], in assay [5] and in assay [6] was > 100 µM (inactive) throughout. Also, the GI50 in assay [7] is > 100 µM (inactive); in assay [8], 79.6 µM (inactive); in assay [9], > 100 µM (inactive); in assay [10] it was > 100 µM (inactive); in [11] it was > 100 µM (inactive); in assay [12], > 100 µM (inactive). In addition, the GI50 in [13], in assay [14], in assay [15], in assay [16], in assay [17] and in assay [18] was > 100 µM (inactive) in each case.

With `N#C/C(=C\c1ccc2ccccc2c1)C(=O)c1ccccc1`, the GI50 was > 100 µM (inactive) in [1]; 23.8 µM (inactive) in [2]; > 100 µM (inactive) in assay [3]; > 100 µM (inactive) in [4]; > 64.9 µM (inactive) in [5]; 44.6 µM (inactive) in assay [19]. The GI50 in assay [6] is 23.5 µM (inactive); in [7], > 95.7 µM (inactive); in assay [8] it was > 100 µM (inactive); in assay [9], > 100 µM (inactive); in assay [10], 36.2 µM (inactive); in assay [11], 63.5 µM (inactive). Besides, the GI50 is > 100 µM (inactive) in [12]; > 63 µM (inactive) in [13]; > 46.8 µM (inactive) in assay [14]; > 66.5 µM (inactive) in [15]; > 82.4 µM (inactive) in [16]; > 100 µM (inactive) in assay [17]. In addition, in assay [18], the GI50 was 82 µM (inactive).

Take `COc1cc(/C=C\c2ccc(C)cc2)cc(OC)c1OC`: the GI50 in assay [1] was < 0.01 µM (active); in [2], 0.00227 µM (active); in assay [3], 0.000266 µM (active); in assay [4], 0.0721 µM (active); in [5] it was 0.00723 µM (active); in [20], 0.0259 µM (active). Moreover, the GI50 is 0.00221 µM (active) in assay [19]; 0.00697 µM (active) in assay [6]; 0.00359 µM (active) in assay [7]; 0.0266 µM (active) in assay [8]; < 0.01 µM (active) in assay [9]; < 0.01 µM (active) in assay [10]. Also, the GI50 is 0.00505 µM (active) in [11]; < 0.01 µM (active) in [12]; 0.00336 µM (active) in assay [13]; 0.0017 µM (active) in assay [14]; 0.0105 µM (active) in assay [15]; 0.004 µM (active) in [16]. In addition, the concentration for 50% growth inhibition (GI50) in assay [17] was 0.0731 µM (active); in [18], 0.00904 µM (active).

For the molecule `C[C@@](O)(/C=C/[C@H]1CC=CC(=O)O1)[C@@H](C[C@@H](O)\C=C/C=C\C=C\CO)OP(=O)(O)O` [FOSTRIECIN SODIUM], the GI50 is 1.81 µM (inactive) in [1]; 2.12 µM (inactive) in assay [2]; 13 µM (inactive) in assay [3]; 16.5 µM (inactive) in assay [4]; 0.634 µM (active) in assay [5]; 22.3 µM (inactive) in assay [20]. In addition, the GI50 in [19] is 0.828 µM (active); in [7], 4.74 µM (inactive); in assay [8] it was 7.4 µM (inactive); in [9] it was 5.27 µM (inactive); in assay [10], 4.11 µM (inactive); in [11], 16.4 µM (inactive). The GI50 in assay [12] is 11.2 µM (inactive); in assay [13], 4.67 µM (inactive); in assay [14], 10.2 µM (inactive); in [15], 9.33 µM (inactive); in assay [16] it was 32.3 µM (inactive); in assay [17] it was 12.8 µM (inactive). Besides, in assay [18], the GI50 was 4.94 µM (inactive).
